Data from patent publication US10597388B2, “Pyridazinone herbicides” (FMC CORPORATION, priority 2014, dated 2020).

Experiments:
Assay type in all cases: in vivo
[1] = tested on: lambsquarters (Chenopodium album); assay: Test C greenhouse herbicide test, pre- and postemergence
Summary of the method: (§1)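 Greenhouse pots; pre-em on seeded loam:sand blend, post-em on 2–18 cm plants (1–4 leaf) in sphagnum peat/vermiculite medium. Formulation: non-phytotoxic solvent + surfactant. Read-out: visual % control (0–100) vs controls at 13–15 d.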

[2] = tested on: ryegrass, Italian (Italian ryegrass, Lolium multiflorum); assay: as above
Summary of the method: as §1

[3] = tested on: morningglory (Ipomoea coccinea); assay: as above
Summary of the method: as §1

corn (Zea mays) = assay: as above
Summary of the method: as §1

[4] = tested on: wheat (winter wheat, Triticum aestivum); assay: as above
Summary of the method: as §1

[5] = tested on: foxtail, giant (giant foxtail, Setaria faberii); assay: as above
Summary of the method: as §1

[6] = tested on: nutsedge, yellow (yellow nutsedge, Cyperus esculentus); assay: as above
Summary of the method: as §1

soybean (Glycine max) = assay: as above
Summary of the method: as §1

[7] = tested on: pigweed (Amaranthus retroflexus); assay: as above
Summary of the method: as §1

[8] = tested on: oilseed rape (Brassica napus); assay: as above
Summary of the method: as §1

[9] = tested on: ragweed (common ragweed, Ambrosia elatior); assay: as above
Summary of the method: as §1

[10] = tested on: johnsongrass (Sorghum halepense); assay: as above
Summary of the method: as §1

[11] = tested on: crabgrass, large (large crabgrass, Digitaria sanguinalis); assay: as above
Summary of the method: as §1

[12] = tested on: blackgrass (Alopecurus myosuroides); assay: as above
Summary of the method: as §1

[13] = tested on: waterhemp (common waterhemp, Amaranthus rudis); assay: as above
Summary of the method: as §1

kochia (Kochia scoparia) = assay: Test C greenhouse herbicide test, postemergence
Summary of the method: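 Seedlings are raised in pots of peat moss–vermiculite medium with starter nutrients, then receive postemergence test chemical at the 1- to 4-leaf stage. They are kept in the greenhouse 13 to 15 d and scored visually versus controls, 0 meaning no effect and 100 complete control.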

[14] = Postemergence, 31 g ai/ha, scale 0 to 100 (0 no effect, 100 complete control)
[15] = Postemergence, 62 g ai/ha, 0 to 100 scale (0 no effect, 100 complete control)
[16] = Postemergence, 250 g ai/ha, scale 0 to 100, 0 no effect, 100 complete control, 13 to 15 d
[17] = Preemergence, 31 g ai/ha, scale 0 to 100, 0 is no effect, 100 is complete control
[18] = Preemergence, 62 g ai/ha, scale 0 to 100, 0 is no effect, 100 is complete control
[19] = Preemergence, 125 g ai/ha, scale 0 to 100, 0 is no effect, 100 is complete control
[20] = Preemergence, 250 g ai/ha, scale 0 to 100 (0 no effect, 100 complete control)
[21] = postemergence, 125 g ai/ha, scale 0 to 100, 0 no effect, 100 complete control

`COc1nn(C)c(=O)c(-c2c(C)ccc3ccccc23)c1OC(C)=O` [Compound 138] was tested, and the “Plant response rating, Lambsquarters” value [1, 14] was 90, the “Lambsquarters plant response rating” value [1, 15] was 90 and the “Plant response rating, Lambsquarters” value [1, 16] was 98. The “Plant response rating, Lambsquarters” value [1, 17] was 95, the “Plant response rating, Lambsquarters” value [1, 18] was 95 and the “Plant response rating, Lambsquarters” value [1, 19] was 100. The “Lambsquarters plant response rating” value [1, 20] was 100, the “Lambsquarters plant response rating” value [1, 21] was 95 and the “Plant response rating, Ryegrass, Italian” value [2, 14] was 5. For the same compound, the “Ryegrass, Italian plant response rating” value [2, 15] was 5, the “Plant response rating, Ryegrass, Italian” value [2, 16] was 70 and the “Plant response rating, Ryegrass, Italian” value [2, 17] was 55. The “Plant response rating, Ryegrass, Italian” value [2, 18] was 90, the “Plant response rating, Ryegrass, Italian” value [2, 19] was 90 and the “Ryegrass, Italian plant response rating” value [2, 20] was 95. For the same compound, the “Ryegrass, Italian plant response rating” value [2, 21] was 10, the “Plant response rating, Morningglory” value [3, 14] was 98 and the “Morningglory plant response rating” value [3, 15] was 100. For the same compound, the “Plant response rating, Morningglory” value [3, 16] was 100, the “Plant response rating, Morningglory” value [3, 17] was 80 and the “Plant response rating, Morningglory” value [3, 18] was 90. The “Plant response rating, Morningglory” value [3, 19] was 98, the “Morningglory plant response rating” value [3, 20] was 98 and the “Morningglory plant response rating” value [3, 21] was 98. The “Plant response rating, Corn” value (corn (Zea mays); [14]) was 0, the “Corn plant response rating” value (corn (Zea mays); [15]) was 0 and the “Plant response rating, Corn” value (corn (Zea mays); [16]) was 15. For the same compound, the “Plant response rating, Corn” value (corn (Zea mays); [17]) was 5, the “Plant response rating, Corn” value (corn (Zea mays); [18]) was 5 and the “Plant response rating, Corn” value (corn (Zea mays); [19]) was 5. For the same compound, the “Corn plant response rating” value (corn (Zea mays); [20]) was 15, the “Corn plant response rating” value (corn (Zea mays); [21]) was 15 and the “Plant response rating, Wheat” value [4, 14] was 60. For the same compound, the “Wheat plant response rating” value [4, 15] was 40, the “Plant response rating, Wheat” value [4, 16] was 90 and the “Plant response rating, Wheat” value [4, 17] was 0. For the same compound, the “Plant response rating, Wheat” value [4, 18] was 35, the “Plant response rating, Wheat” value [4, 19] was 5 and the “Wheat plant response rating” value [4, 20] was 5. The “Wheat plant response rating” value [4, 21] was 80, the “Plant response rating, Foxtail, Giant” value [5, 14] was 35 and the “Foxtail, Giant plant response rating” value [5, 15] was 60. The “Plant response rating, Foxtail, Giant” value [5, 16] was 80, the “Plant response rating, Foxtail, Giant” value [5, 17] was 80 and the “Plant response rating, Foxtail, Giant” value [5, 18] was 85. The “Plant response rating, Foxtail, Giant” value [5, 19] was 100, the “Foxtail, Giant plant response rating” value [5, 20] was 100 and the “Foxtail, Giant plant response rating” value [5, 21] was 65. For the same compound, the “Plant response rating, Nutsedge, Yellow” value [6, 14] was 45, the “Nutsedge, Yellow plant response rating” value [6, 15] was 65 and the “Plant response rating, Nutsedge, Yellow” value [6, 16] was 80. For the same compound, the “Plant response rating, Nutsedge, Yellow” value [6, 17] was 5, the “Plant response rating, Nutsedge, Yellow” value [6, 18] was 60 and the “Plant response rating, Nutsedge, Yellow” value [6, 19] was 95. The “Nutsedge, Yellow plant response rating” value [6, 20] was 90, the “Nutsedge, Yellow plant response rating” value [6, 21] was 75 and the “Plant response rating, Soybean” value (soybean (Glycine max); [14]) was 10. For the same compound, the “Soybean plant response rating” value (soybean (Glycine max); [15]) was 10, the “Plant response rating, Soybean” value (soybean (Glycine max); [16]) was 25 and the “Plant response rating, Soybean” value (soybean (Glycine max); [17]) was 0. The “Plant response rating, Soybean” value (soybean (Glycine max); [18]) was 0, the “Plant response rating, Soybean” value (soybean (Glycine max); [19]) was 20 and the “Soybean plant response rating” value (soybean (Glycine max); [20]) was 15. The “Soybean plant response rating” value (soybean (Glycine max); [21]) was 10, the “Plant response rating, Pigweed” value [7, 14] was 80 and the “Pigweed plant response rating” value [7, 15] was 85. The “Plant response rating, Pigweed” value [7, 16] was 98, the “Plant response rating, Pigweed” value [7, 17] was 100 and the “Plant response rating, Pigweed” value [7, 18] was 98. The “Plant response rating, Pigweed” value [7, 19] was 100, the “Pigweed plant response rating” value [7, 20] was 100 and the “Pigweed plant response rating” value [7, 21] was 90. The “Plant response rating, Oilseed Rape” value [8, 14] was 95, the “Oilseed Rape plant response rating” value [8, 15] was 98 and the “Plant response rating, Oilseed Rape” value [8, 16] was 98. For the same compound, the “Plant response rating, Oilseed Rape” value [8, 17] was 85, the “Plant response rating, Oilseed Rape” value [8, 18] was 90 and the “Plant response rating, Oilseed Rape” value [8, 19] was 90. For the same compound, the “Oilseed Rape plant response rating” value [8, 20] was 100, the “Oilseed Rape plant response rating” value [8, 21] was 98 and the “Plant response rating, Ragweed” value [9, 14] was 0. The “Ragweed plant response rating” value [9, 15] was 0, the “Plant response rating, Ragweed” value [9, 16] was 5 and the “Plant response rating, Ragweed” value [9, 17] was 95. The “Plant response rating, Ragweed” value [9, 18] was 100, the “Plant response rating, Ragweed” value [9, 19] was 98 and the “Ragweed plant response rating” value [9, 20] was 95. The “Ragweed plant response rating” value [9, 21] was 5, the “Plant response rating, Johnsongrass” value [10, 14] was 10 and the “Johnsongrass plant response rating” value [10, 15] was 10. The “Plant response rating, Johnsongrass” value [10, 16] was 20, the “Plant response rating, Johnsongrass” value [10, 17] was 10 and the “Plant response rating, Johnsongrass” value [10, 18] was 15. The “Plant response rating, Johnsongrass” value [10, 19] was 30, the “Johnsongrass plant response rating” value [10, 20] was 20 and the “Johnsongrass plant response rating” value [10, 21] was 20. The “Plant response rating, Crabgrass, Large” value [11, 14] was 15, the “Crabgrass, Large plant response rating” value [11, 15] was 20 and the “Plant response rating, Crabgrass, Large” value [11, 16] was 25. The “Plant response rating, Crabgrass, Large” value [11, 17] was 0, the “Plant response rating, Crabgrass, Large” value [11, 18] was 40 and the “Plant response rating, Crabgrass, Large” value [11, 19] was 70. For the same compound, the “Crabgrass, Large plant response rating” value [11, 20] was 80, the “Crabgrass, Large plant response rating” value [11, 21] was 20 and the “Plant response rating, Blackgrass” value [12, 14] was 5. The “Blackgrass plant response rating” value [12, 15] was 5, the “Plant response rating, Blackgrass” value [12, 16] was 80 and the “Plant response rating, Blackgrass” value [12, 17] was 45. The “Plant response rating, Blackgrass” value [12, 18] was 55, the “Plant response rating, Blackgrass” value [12, 19] was 40 and the “Blackgrass plant response rating” value [12, 20] was 90. The “Blackgrass plant response rating” value [12, 21] was 50, the “Plant response rating, Waterhemp” value [13, 14] was 90 and the “Waterhemp plant response rating” value [13, 15] was 95. The “Plant response rating, Waterhemp” value [13, 16] was 100, the “Plant response rating, Waterhemp” value [13, 17] was 95 and the “Plant response rating, Waterhemp” value [13, 18] was 100. The “Plant response rating, Waterhemp” value [13, 19] was 98, the “Waterhemp plant response rating” value [13, 20] was 100 and the “Waterhemp plant response rating” value [13, 21] was 98. For the same compound, the “Plant response rating, Kochia” value (kochia (Kochia scoparia); [14]) was 90, the “Kochia plant response rating” value (kochia (Kochia scoparia); [15]) was 95 and the “Plant response rating, Kochia” value (kochia (Kochia scoparia); [16]) was 100. For the same compound, the “Kochia plant response rating” value (kochia (Kochia scoparia); [21]) was 100.
